# pIC50: −log10 of the molar value.
# Target: T1, rat α1B+α2b+β1b channels (N-type channels) (Rattus norvegicus, UniProt Q02294)
# T1 construct: expressed in transfected cells
# Test: Block of α1B N-type channels, whole cell patch recordings (Example 6)
# Type: cell-based
# Settings: 0.067 Hz; HEK 293, 5 mM barium as charge carrier; read-out: Block of α1B N-type Channels IC50, 0.067 Hz
# Method: Antagonist activity was measured using whole cell patch recordings on human embryonic kidney cells either stably or transiently expressing rat α1B+α2b+β1b channels (N-type channels) with 5 mM barium as a charge carrier.
# For transient expression, host cells, such as human embryonic kidney cells, HEK 293 (ATCC# CRL 1573) were grown in standard DMEM medium supplemented with 2 mM glutamine and 10% fetal bovine serum. HEK 293 cells were transfected by a standard calcium-phosphate-DNA coprecipitation method using the rat α1B+β1b+α2δ N-type calcium channel subunits in a vertebrate expression vector (for example, see Current Protocols in Molecular Biology).
# After an incubation period of from 24 to 72 hrs the culture medium was removed and replaced with external recording solution (see below). Whole cell patch clamp experiments were performed using an Axopatch 200B amplifier (Axon Instruments, Burlingame, Calif.) linked to an IBM compatible personal computer equipped with pCLAMP software. Borosilicate glass patch pipettes (Sutter Instrument Co., Novato, Calif.) were polished (Microforge, Narishige, Japan) to a resistance of about 4 MΩ when filled with cesium methanesulfonate internal solution (composition in MM: 109 CsCH3SO4, 4 MgCl2, 9 EGTA, 9 HEPES, pH 7.2). Cells were bathed in 5 mM Ba^++ (in mM: 5 BaCl2, 1 MgCl2, 10 HEPES, 40 tetraethylammonium chloride, 10 glucose, 87.5 CsCl pH 7.2). […] Drugs were perfused directly into the vicinity of the cells using a microperfusion system.
# Normalized dose-response curves were fit (Sigmaplot 4.0, SPSS Inc., Chicago, Ill.) by the Hill equation to determine IC50 values. Steady-state inactivation curves were plotted as the normalized test pulse amplitude following 5 s inactivating prepulses at +10 mV increments. Inactivation curves were fit (Sigmaplot 4.0) with the Boltzman equation, Ipeak (normalized)=1/(1+exp((V-Vh)z/25.6)), where V and Vh are the conditioning and half inactivation potentials, respectively, and z is the slope factor.
# Using the procedure set forth above, various compounds of the invention were tested for their ability to block N-type calcium channels.
# T1 sequence (Q02294 whole entry): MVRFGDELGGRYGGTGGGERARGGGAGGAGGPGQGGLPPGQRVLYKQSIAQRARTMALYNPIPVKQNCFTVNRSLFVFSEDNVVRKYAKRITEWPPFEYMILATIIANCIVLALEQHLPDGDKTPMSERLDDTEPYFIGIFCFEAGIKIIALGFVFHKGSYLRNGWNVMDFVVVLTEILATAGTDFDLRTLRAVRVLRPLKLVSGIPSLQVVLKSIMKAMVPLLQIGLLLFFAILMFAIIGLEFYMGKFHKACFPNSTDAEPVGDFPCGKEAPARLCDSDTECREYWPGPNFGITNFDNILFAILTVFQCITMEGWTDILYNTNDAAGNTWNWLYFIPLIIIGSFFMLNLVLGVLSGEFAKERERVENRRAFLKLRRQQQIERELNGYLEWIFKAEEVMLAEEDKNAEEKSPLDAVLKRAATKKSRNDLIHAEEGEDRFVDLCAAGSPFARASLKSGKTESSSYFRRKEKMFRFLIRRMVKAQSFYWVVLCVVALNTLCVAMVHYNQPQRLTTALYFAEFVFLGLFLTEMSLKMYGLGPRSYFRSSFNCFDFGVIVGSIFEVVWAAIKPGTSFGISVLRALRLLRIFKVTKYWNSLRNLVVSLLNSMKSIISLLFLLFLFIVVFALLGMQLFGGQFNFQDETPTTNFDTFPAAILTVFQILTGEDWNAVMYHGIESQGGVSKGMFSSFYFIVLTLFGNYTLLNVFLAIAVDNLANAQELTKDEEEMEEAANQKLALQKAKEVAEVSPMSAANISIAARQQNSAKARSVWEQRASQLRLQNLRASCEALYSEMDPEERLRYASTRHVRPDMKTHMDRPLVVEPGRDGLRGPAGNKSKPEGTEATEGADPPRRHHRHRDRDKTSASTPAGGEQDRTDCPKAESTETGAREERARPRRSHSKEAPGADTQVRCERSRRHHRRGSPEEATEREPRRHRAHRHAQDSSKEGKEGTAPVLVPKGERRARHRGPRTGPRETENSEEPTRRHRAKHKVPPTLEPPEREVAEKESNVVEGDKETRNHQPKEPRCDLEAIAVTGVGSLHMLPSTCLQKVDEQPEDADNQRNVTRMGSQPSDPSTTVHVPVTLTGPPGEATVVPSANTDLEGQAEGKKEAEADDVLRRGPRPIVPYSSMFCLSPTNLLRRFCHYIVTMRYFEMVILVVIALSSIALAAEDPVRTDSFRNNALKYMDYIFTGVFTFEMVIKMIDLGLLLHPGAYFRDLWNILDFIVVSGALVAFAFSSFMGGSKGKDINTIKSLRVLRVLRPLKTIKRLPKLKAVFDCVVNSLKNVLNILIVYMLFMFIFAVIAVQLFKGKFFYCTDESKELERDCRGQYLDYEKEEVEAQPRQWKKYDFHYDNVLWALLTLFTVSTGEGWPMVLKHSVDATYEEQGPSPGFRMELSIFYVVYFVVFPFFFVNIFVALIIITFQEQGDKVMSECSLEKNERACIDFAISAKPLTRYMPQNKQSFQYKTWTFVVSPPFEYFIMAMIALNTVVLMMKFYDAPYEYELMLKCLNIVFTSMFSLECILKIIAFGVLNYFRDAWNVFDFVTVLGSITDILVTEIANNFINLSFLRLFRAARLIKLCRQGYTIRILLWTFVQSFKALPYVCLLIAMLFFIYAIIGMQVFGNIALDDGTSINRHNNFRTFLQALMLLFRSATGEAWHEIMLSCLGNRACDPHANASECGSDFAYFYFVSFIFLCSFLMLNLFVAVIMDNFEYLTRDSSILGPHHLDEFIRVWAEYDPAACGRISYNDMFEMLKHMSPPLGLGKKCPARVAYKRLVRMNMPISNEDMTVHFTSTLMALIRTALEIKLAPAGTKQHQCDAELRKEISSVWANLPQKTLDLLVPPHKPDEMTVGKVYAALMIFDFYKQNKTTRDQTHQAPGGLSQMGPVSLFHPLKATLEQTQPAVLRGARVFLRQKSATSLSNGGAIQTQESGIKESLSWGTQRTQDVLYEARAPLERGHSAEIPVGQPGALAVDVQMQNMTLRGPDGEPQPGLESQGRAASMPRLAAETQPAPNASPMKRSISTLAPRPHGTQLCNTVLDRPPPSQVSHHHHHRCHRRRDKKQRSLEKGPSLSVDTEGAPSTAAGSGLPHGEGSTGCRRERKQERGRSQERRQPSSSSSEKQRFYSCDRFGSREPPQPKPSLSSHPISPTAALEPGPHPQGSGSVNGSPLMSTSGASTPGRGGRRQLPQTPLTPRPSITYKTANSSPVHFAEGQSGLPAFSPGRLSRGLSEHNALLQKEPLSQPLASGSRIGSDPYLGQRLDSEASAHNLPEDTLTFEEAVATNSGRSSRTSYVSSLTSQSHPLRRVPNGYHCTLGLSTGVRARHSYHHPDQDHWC
row,Compound,pIC50
1,O=C(CC(c1ccccc1)c1ccccc1)N1CCN(C(c2ccccc2)c2ccccc2Cl)CC1 (stereo not shown) [Compound P35],6.68
2,O=C(CC(c1ccccc1)c1ccccc1)N1CCN([C@@H](c2ccccc2)c2ccc(Cl)cc2)CC1 [Compound P47],6.63
3,Cc1ccc(C(c2ccccc2)N2CCN(C(=O)CC(c3ccccc3)c3ccccc3)CC2)c(C)c1 (stereo not shown) [Compound P18],6.49
4,COc1ccc(C(c2ccc(C(F)(F)F)cc2)N2CCN(C(=O)CC(c3ccccc3)c3ccccc3)CC2)cc1 (stereo not shown) [Compound P3],6.54
5,Cl.O=C(O)C1CN(C(c2ccccc2)c2ccccc2)CCN1C(=O)CC(c1ccccc1)c1ccccc1 (stereo not shown) [Compound P8],6.64
6,O=C(CC(c1ccccc1)c1ccccc1)N1CCN(C(c2ccccc2)c2ccc(Cl)cc2)CC1 (stereo not shown) [Compound P6],6.77
7,CC(C)(C)c1cc(C(c2ccccc2)N2CCN(C(=O)CC(c3ccccc3)c3ccccc3)CC2)cc(C(C)(C)C)c1O (stereo not shown) [Compound P4],6.67

# Same assay, conditions: 0.2 Hz; HEK 293, 5 mM barium as charge carrier; read-out: Block of α1B N-type Channels IC50, 0.2 Hz
row,Compound,pIC50
1,O=C(CC(c1ccccc1)c1ccccc1)N1CCN(C(c2ccccc2)c2ccccc2Cl)CC1 (stereo not shown) [Compound P35],7.04
2,O=C(CC(c1ccccc1)c1ccccc1)N1CCN([C@@H](c2ccccc2)c2ccc(Cl)cc2)CC1 [Compound P47],6.86
3,Cc1ccc(C(c2ccccc2)N2CCN(C(=O)CC(c3ccccc3)c3ccccc3)CC2)c(C)c1 (stereo not shown) [Compound P18],6.63
4,COc1ccc(C(c2ccc(C(F)(F)F)cc2)N2CCN(C(=O)CC(c3ccccc3)c3ccccc3)CC2)cc1 (stereo not shown) [Compound P3],6.95
5,Cl.O=C(O)C1CN(C(c2ccccc2)c2ccccc2)CCN1C(=O)CC(c1ccccc1)c1ccccc1 (stereo not shown) [Compound P8],6.85
6,O=C(CC(c1ccccc1)c1ccccc1)N1CCN(C(c2ccccc2)c2ccc(Cl)cc2)CC1 (stereo not shown) [Compound P6],6.92
7,CC(C)(C)c1cc(C(c2ccccc2)N2CCN(C(=O)CC(c3ccccc3)c3ccccc3)CC2)cc(C(C)(C)C)c1O (stereo not shown) [Compound P4],6.94

# System: L-type channels (α1C+α2δ+β1b cDNA subunits)
# Test: Selectivity patch clamp, L-type channels in HEK 293 (Example 7)
# Type: cell-based
# Settings: Tested at 0.1 Hz, 5 mM Ba2+
row,Compound,pIC50
1,O=C(CC(c1ccccc1)c1ccccc1)N1CCN(C(c2ccccc2)c2ccccc2Cl)CC1 (stereo not shown) [Compound P35],3.97
2,O=C(CC(c1ccccc1)c1ccccc1)N1CCN([C@@H](c2ccccc2)c2ccc(Cl)cc2)CC1 [Compound P47],5.36
3,Cc1ccc(C(c2ccccc2)N2CCN(C(=O)CC(c3ccccc3)c3ccccc3)CC2)c(C)c1 (stereo not shown) [Compound P18],4.87
4,COc1ccc(C(c2ccc(C(F)(F)F)cc2)N2CCN(C(=O)CC(c3ccccc3)c3ccccc3)CC2)cc1 (stereo not shown) [Compound P3],< 5.00
5,Cl.O=C(O)C1CN(C(c2ccccc2)c2ccccc2)CCN1C(=O)CC(c1ccccc1)c1ccccc1 (stereo not shown) [Compound P8],4.43
6,O=C(CC(c1ccccc1)c1ccccc1)N1CCN(C(c2ccccc2)c2ccc(Cl)cc2)CC1 (stereo not shown) [Compound P6],3.88
7,CC(C)(C)c1cc(C(c2ccccc2)N2CCN(C(=O)CC(c3ccccc3)c3ccccc3)CC2)cc(C(C)(C)C)c1O (stereo not shown) [Compound P4],< 5.00

# Target: T2, human α1G subunits (T-type channels) (Homo sapiens, UniProt O43497)
# T2 construct: expressed in transfected cells
# Test: Block of α1G T-type channels, patch clamp in HEK cell lines (Example 8)
# Type: cell-based
# Settings: 80 mV (inactivation protocol); read-out: Block of α1G T-type Channels IC50, 80 mV
# Method: Standard patch-clamp techniques were employed to identify blockers of T-type currents. Briefly, previously described HEK cell lines stably expressing human α1G subunits were used for all the recordings (passage #: 4-20, 37° C., 5% CO2). To obtain T-type currents, plastic dishes containing semi-confluent cells were positioned on the stage of a ZEISS AXIOVERT S100 microscope after replacing the culture medium with external solution (see below). Whole-cell patches were obtained using pipettes (borosilicate glass with filament, O.D.: 1.5 mm, I.D.: 0.86 mm, 10 cm length), fabricated on a SUTTER P-97 puller with resistance values of ˜5 MΩ (see below for internal medium).
# In the non-inactivating protocol, the holding potential is set at −110 mV and with a pre-pulse at −100 mV for 1 second prior to the test pulse at −40 mV for 50 ms; in the inactivation protocol, the pre-pulse is at approximately −85 mV for 1 second, which inactivates about 15% of the T-type channels, as shown below. [formula]
# Test compounds were dissolved in external solution, 0.1-0.01% DMSO. After ˜10 min rest, they were applied by gravity close to the cell using a WPI microfil tubing. The “non-inactivated” pre-pulse was used to examine the resting block of a compound. The “inactivated” protocol was employed to study voltage-dependent block, but the initial data shown below were mainly obtained using the non-inactivated protocol only. IC50 values are shown for various compounds of the invention in Table 5.
# T2 sequence (O43497 whole entry): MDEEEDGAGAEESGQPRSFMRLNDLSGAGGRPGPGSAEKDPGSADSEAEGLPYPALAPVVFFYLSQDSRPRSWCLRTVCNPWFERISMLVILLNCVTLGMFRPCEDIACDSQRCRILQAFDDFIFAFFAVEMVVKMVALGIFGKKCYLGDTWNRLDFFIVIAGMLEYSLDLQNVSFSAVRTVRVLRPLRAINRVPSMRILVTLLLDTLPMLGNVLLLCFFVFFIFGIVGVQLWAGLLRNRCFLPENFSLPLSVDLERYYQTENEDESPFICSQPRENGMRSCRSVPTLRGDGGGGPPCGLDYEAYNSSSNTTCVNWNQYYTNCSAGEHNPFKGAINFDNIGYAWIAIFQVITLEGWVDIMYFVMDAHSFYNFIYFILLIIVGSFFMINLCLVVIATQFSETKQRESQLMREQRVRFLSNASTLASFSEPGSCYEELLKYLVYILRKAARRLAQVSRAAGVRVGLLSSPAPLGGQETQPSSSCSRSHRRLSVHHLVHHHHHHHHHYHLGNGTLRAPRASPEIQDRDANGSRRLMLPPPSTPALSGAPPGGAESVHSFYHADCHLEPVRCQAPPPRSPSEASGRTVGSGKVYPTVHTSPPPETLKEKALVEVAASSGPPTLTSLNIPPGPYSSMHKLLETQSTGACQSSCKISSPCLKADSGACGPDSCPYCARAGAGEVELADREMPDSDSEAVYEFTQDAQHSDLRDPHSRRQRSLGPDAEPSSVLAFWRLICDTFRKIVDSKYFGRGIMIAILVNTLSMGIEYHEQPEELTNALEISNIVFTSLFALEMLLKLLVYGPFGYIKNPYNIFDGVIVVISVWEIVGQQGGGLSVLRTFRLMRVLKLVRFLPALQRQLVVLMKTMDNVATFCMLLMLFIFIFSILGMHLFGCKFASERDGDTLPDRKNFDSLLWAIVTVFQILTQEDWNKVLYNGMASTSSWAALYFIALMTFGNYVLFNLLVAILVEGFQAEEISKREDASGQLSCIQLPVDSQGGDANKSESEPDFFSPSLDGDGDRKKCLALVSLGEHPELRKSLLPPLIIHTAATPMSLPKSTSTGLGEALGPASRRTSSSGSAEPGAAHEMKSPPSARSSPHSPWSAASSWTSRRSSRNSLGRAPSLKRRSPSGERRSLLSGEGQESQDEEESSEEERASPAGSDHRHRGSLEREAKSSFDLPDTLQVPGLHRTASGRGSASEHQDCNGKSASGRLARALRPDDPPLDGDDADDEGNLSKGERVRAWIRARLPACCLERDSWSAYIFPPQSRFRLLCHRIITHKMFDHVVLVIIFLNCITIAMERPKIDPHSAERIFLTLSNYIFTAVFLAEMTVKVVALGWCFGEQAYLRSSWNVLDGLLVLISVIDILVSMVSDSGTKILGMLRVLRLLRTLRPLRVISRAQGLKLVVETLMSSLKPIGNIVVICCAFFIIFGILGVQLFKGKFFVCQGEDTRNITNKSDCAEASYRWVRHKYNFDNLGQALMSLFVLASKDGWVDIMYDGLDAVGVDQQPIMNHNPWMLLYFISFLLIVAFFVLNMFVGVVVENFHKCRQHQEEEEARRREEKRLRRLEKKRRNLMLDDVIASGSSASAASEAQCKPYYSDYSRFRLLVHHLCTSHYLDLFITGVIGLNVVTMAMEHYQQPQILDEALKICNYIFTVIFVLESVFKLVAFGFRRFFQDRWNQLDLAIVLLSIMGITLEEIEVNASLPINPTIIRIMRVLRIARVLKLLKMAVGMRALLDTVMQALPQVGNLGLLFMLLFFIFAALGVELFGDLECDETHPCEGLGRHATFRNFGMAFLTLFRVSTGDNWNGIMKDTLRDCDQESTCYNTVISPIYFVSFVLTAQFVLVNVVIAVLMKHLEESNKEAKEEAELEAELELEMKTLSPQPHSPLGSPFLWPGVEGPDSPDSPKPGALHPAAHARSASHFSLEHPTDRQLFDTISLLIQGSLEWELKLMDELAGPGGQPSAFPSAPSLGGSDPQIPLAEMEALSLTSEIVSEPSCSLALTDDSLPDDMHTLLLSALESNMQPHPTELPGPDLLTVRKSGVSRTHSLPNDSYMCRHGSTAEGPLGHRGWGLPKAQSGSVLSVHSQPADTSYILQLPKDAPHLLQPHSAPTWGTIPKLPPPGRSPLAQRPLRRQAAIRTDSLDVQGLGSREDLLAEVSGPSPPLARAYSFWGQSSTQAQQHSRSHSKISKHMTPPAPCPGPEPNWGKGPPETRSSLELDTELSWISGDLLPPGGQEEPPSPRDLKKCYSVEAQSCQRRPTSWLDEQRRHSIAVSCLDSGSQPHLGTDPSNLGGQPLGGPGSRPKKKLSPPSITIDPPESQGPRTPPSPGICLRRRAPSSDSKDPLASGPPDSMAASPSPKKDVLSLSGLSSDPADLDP
row,Compound,pIC50
1,O=C(CC(c1ccccc1)c1ccccc1)N1CCN(C(c2ccccc2)c2ccccc2Cl)CC1 (stereo not shown) [Compound P35],6.85
2,O=C(CC(c1ccccc1)c1ccccc1)N1CCN([C@@H](c2ccccc2)c2ccc(Cl)cc2)CC1 [Compound P47],6.33

# Same assay, conditions: 100 mV (non-inactivating protocol); read-out: Block of α1G T-type Channels IC50, 100 mV
row,Compound,pIC50
1,O=C(CC(c1ccccc1)c1ccccc1)N1CCN([C@@H](c2ccccc2)c2ccc(Cl)cc2)CC1 [Compound P47],5.84
2,Cc1ccc(C(c2ccccc2)N2CCN(C(=O)CC(c3ccccc3)c3ccccc3)CC2)c(C)c1 (stereo not shown) [Compound P18],7.46
3,O=C(CC(c1ccccc1)c1ccccc1)N1CCN(C(c2ccccc2)c2ccc(Cl)cc2)CC1 (stereo not shown) [Compound P6],7.09

# System: P/Q-type channels (α1A+α2δ+β1b cDNA subunits)
# Test: Selectivity patch clamp, P/Q-type channels in HEK 293 (Example 7)
# Type: cell-based
# Settings: Tested at 0.1 Hz, 5 mM Ba2+
row,Compound,pIC50
1,O=C(CC(c1ccccc1)c1ccccc1)N1CCN(C(c2ccccc2)c2ccccc2Cl)CC1 (stereo not shown) [Compound P35],5.15
2,O=C(CC(c1ccccc1)c1ccccc1)N1CCN([C@@H](c2ccccc2)c2ccc(Cl)cc2)CC1 [Compound P47],5.73
3,Cc1ccc(C(c2ccccc2)N2CCN(C(=O)CC(c3ccccc3)c3ccccc3)CC2)c(C)c1 (stereo not shown) [Compound P18],5.44
4,COc1ccc(C(c2ccc(C(F)(F)F)cc2)N2CCN(C(=O)CC(c3ccccc3)c3ccccc3)CC2)cc1 (stereo not shown) [Compound P3],5.12
5,Cl.O=C(O)C1CN(C(c2ccccc2)c2ccccc2)CCN1C(=O)CC(c1ccccc1)c1ccccc1 (stereo not shown) [Compound P8],5.47
6,O=C(CC(c1ccccc1)c1ccccc1)N1CCN(C(c2ccccc2)c2ccc(Cl)cc2)CC1 (stereo not shown) [Compound P6],5.35
7,CC(C)(C)c1cc(C(c2ccccc2)N2CCN(C(=O)CC(c3ccccc3)c3ccccc3)CC2)cc(C(C)(C)C)c1O (stereo not shown) [Compound P4],< 5.00

# System: rat formalin model
# Test: Formalin-induced pain model
# Type: in vivo
# Settings: 30 mg/kg IP, 10 minutes prior to formalin, saline control=100%
# Method: The effects of intrathecally delivered compounds of the invention on the rat formalin model were measured. The compounds were reconstituted to stock solutions of approximately 10 mg/ml in propylene glycol. Eight Holtsman male rats of 275-375 g size were randomly selected per test compound.
# The following study groups were used, with test compounds, vehicle control (propylene glycol) and saline delivered intraperitoneally (IP):
# Prior to initiation of drug delivery baseline behavioral and testing data were taken.
# On the morning of testing, a small metal band (0.5 g) was loosely placed around the right hind paw. The rat was placed in a cylindrical Plexiglas chamber for adaptation a minimum of 30 minutes. Test compound or vehicle control was administered 10 minutes prior to formalin injection (50 μl of 5% formalin) into the dorsal surface of the right hindpaw of the rat. The animal was then placed into the chamber of the automated formalin apparatus where movement of the formalin injected paw was monitored and the number of paw flinches tallied by minute over the next 60 minutes. (See Malmberg, A. M., and Yaksh, T. L., Anesthesiology (1993) 79:270-281.)
# Results are presented as Maximum Possible Effect±SEM, where saline control=100%.
Compound,"Maximum Possible Effect ± SEM, Phase I [%]","Maximum Possible Effect ± SEM, Phase II [%]","Maximum Possible Effect ± SEM, Phase IIA [%]"
O=C(CC(c1ccccc1)c1ccccc1)N1CCN(C(c2ccccc2)c2ccccc2Cl)CC1 (stereo not shown) [Compound P35],78 ± 8,67 ± 8,52 ± 11
O=C(CC(c1ccccc1)c1ccccc1)N1CCN([C@@H](c2ccccc2)c2ccc(Cl)cc2)CC1 [Compound P47],60 ± 7,55 ± 8,54 ± 9
Cc1ccc(C(c2ccccc2)N2CCN(C(=O)CC(c3ccccc3)c3ccccc3)CC2)c(C)c1 (stereo not shown) [Compound P18],73 ± 17,84 ± 12,78 ± 13
COc1ccc(C(c2ccc(C(F)(F)F)cc2)N2CCN(C(=O)CC(c3ccccc3)c3ccccc3)CC2)cc1 (stereo not shown) [Compound P3],89 ± 8,79 ± 4,85 ± 5
Cl.O=C(O)C1CN(C(c2ccccc2)c2ccccc2)CCN1C(=O)CC(c1ccccc1)c1ccccc1 (stereo not shown) [Compound P8],78 ± 5,70 ± 15,57 ± 18

# Target: T3, N-type calcium channels (α1B+α2δ+β1b cDNA subunits) (Rattus norvegicus, UniProt Q02294)
# T3 construct: expressed in transfected cells
# Test: Selectivity patch clamp, N-type channels in HEK 293 (Example 7)
# Type: cell-based
# Settings: Tested at 0.1 Hz, 5 mM Ba2+
# T3 sequence (Q02294 whole entry): as the sequence (Q02294 whole entry) above
row,Compound,pIC50
1,O=C(CC(c1ccccc1)c1ccccc1)N1CCN(C(c2ccccc2)c2ccccc2Cl)CC1 (stereo not shown) [Compound P35],6.68
2,O=C(CC(c1ccccc1)c1ccccc1)N1CCN([C@@H](c2ccccc2)c2ccc(Cl)cc2)CC1 [Compound P47],6.71
3,Cc1ccc(C(c2ccccc2)N2CCN(C(=O)CC(c3ccccc3)c3ccccc3)CC2)c(C)c1 (stereo not shown) [Compound P18],6.66
4,COc1ccc(C(c2ccc(C(F)(F)F)cc2)N2CCN(C(=O)CC(c3ccccc3)c3ccccc3)CC2)cc1 (stereo not shown) [Compound P3],6.73
5,Cl.O=C(O)C1CN(C(c2ccccc2)c2ccccc2)CCN1C(=O)CC(c1ccccc1)c1ccccc1 (stereo not shown) [Compound P8],6.44
6,O=C(CC(c1ccccc1)c1ccccc1)N1CCN(C(c2ccccc2)c2ccc(Cl)cc2)CC1 (stereo not shown) [Compound P6],6.80
7,CC(C)(C)c1cc(C(c2ccccc2)N2CCN(C(=O)CC(c3ccccc3)c3ccccc3)CC2)cc(C(C)(C)C)c1O (stereo not shown) [Compound P4],6.60

# — patent publication US20040259866A1, “Calcium channel blockers comprising two benzhydril moieties” (priority 1998, published 2004)
